As a reminder, the Km is the substrate concentration at which the rate is half of its maximum.

The results in this text go back to article PMC6555645 (Angewandte Chemie (International ed. in English), 2019).

One test addresses T1, Tar14 (Saccharomonospora piscinae, UniProt W5VG40).
T1 sequence (W5VG40 1-534): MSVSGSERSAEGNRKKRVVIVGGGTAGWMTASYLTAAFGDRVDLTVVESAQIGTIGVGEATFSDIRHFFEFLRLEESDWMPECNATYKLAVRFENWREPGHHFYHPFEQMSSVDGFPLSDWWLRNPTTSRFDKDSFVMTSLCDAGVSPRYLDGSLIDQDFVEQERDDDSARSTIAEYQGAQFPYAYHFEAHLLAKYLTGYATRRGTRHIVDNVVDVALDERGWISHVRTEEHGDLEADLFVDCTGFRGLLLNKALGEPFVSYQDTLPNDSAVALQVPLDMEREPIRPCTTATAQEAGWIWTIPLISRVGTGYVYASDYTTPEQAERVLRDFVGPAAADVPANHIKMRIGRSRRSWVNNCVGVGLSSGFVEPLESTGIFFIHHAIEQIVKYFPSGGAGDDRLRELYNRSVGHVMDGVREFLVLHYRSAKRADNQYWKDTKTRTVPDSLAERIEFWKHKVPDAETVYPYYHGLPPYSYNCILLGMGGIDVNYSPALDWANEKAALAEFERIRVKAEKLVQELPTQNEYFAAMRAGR
As to the kind of experiment: in vitro chlorination assay. In kind it is biochemical. The following applies: with flavin and a flavin reductase system; chloride.

The next test has as its target T2, Tar13 (Saccharomonospora piscinae, UniProt W5VMS0).
T2 sequence (W5VMS0 1-236): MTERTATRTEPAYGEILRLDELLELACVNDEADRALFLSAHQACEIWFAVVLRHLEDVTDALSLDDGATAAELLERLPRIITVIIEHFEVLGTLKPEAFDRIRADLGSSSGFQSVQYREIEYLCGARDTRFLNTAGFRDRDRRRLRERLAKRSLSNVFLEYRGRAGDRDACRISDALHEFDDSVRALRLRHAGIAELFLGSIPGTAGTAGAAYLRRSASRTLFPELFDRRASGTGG
As to the kind of experiment: in vitro dioxygenase assay. In kind it is biochemical. The conditions noted are these: heme-dependent TDO; O2.

As for `N[C@@H](Cc1c[nH]c2ccccc12)C(=O)O` [compound 4, L-Trp], the Km on Tar14 is 12 µM.

In the case of `N[C@@H](Cc1c[nH]c2cc(Cl)ccc12)C(=O)O` [compound 7, L-6-Cl-Trp], the Km on Tar13 worked out at 112 µM.
